Tested on: BCSCs
Test: Cellular internalization pathway of bioengineered exosomes using endocytic pathway inhibitors
Assay type: cell-based
Conditions: BCSCs pretreated with inhibitor, then PKH67 labeled exosomes; microscopy and flow cytometry
Method: The mode of cellular internalization of the bioengineered exosomes was examined by using different endocytic pathway inhibitors. BCSCs were pretreated with different inhibitors including sucrose (inhibitor of clathrin-mediated endocytosis), amiloride (inhibitor of macropinocytosis), and filipin (inhibitor of caveolar uptake pathway), followed by the incubation with PKH67 labeled exosomes.

Compound	effect of inhibitor on cellular internalization of exosomes
N=C(N)NC(=O)c1nc(Cl)c(N)nc1N [amiloride]	inhibited
OC[C@H]1O[C@@](CO)(O[C@H]2O[C@H](CO)[C@@H](O)[C@H](O)[C@H]2O)[C@@H](O)[C@@H]1O [sucrose]	inhibited
